Assay results from patent US20190049429A1, “METHOD FOR OBSERVING DYNAMICS OF SWEAT GLANDS” (MANDOM CORPORATION, priority 2016, published 2019).

Experiments:
Assay type in all cases: cell-based, human
[1] = system: isolated whole sweat glands; experiment: Evaluation of test substance for perspiration-controlling action: moving distance of cells in whole sweat glands stimulated with pilocarpine; details: atropine pre-incubated 30 minutes, pilocarpine 10 mM after 10 minutes
Description: Whole sweat glands were observed by time-lapse imaging in the same manner as in Example 1 except that Krebs-Ringer solution was used in place of PBS, that atropine as a test substance was added onto the whole sweat glands before observing the whole sweat glands by using time-lapse imaging and thereafter the whole sweat glands were incubated for 30 minutes, and that pilocarpine was added onto the whole sweat glands so as to have a concentration of 10 mM after 10 minutes passed from the initiation of the observation (Experiment No. 1). Next, cells E, F, G, H and I were selected from the image of FIG. 21, and a moving distance of each cell was examined in the same manner as in Example 1. Next, the average value of moving distances of cells was obtained by using the moving distance of each cell. The scale bar in FIG. 21 means 50 μm.
In addition, whole sweat glands were observed by time-lapse imaging in the same manner as in Example 1 except that Krebs-Ringer's solution was used in place of PBS and that pilocarpine was added onto the whole sweat glands so as to have a concentration of 10 mM after 10 minutes passed from the initiation of the observation (Experiment No. 2). Next, cells J, K, L, M and N were selected from the image of FIG. 22, and a moving distance of each cell was examined in the same manner as in Example 1. […]

[2] = system: isolated whole sweat glands; experiment: Time-lapse imaging of stained isolated whole sweat glands held with collagen in PBS: moving distance of cells after stimulant; details: pilocarpine 10 mM added 60 seconds after initiation of observation, when 150 to 300 seconds passed from initiation, FIG. 5
Description: As skin tissues, skin tissues which were refrigerated immediately after removal from living donors and stored at 4° C. for 15 hours were used. The skin tissues were immersed in a phosphate-buffered saline containing 10 μM Neutral Red, to incorporate Neutral Red into sweat glands included in the skin tissues. Next, the dermis of each of the skin tissues was finely cut to obtain dermal segments. Whole sweat glands were collected from the dermal segments by using tweezers under an optical microscope. […]
After 5 minutes passed from the addition of the buffer, the observation with the time-lapse imaging of the whole sweat glands on the glass bottom dish was started by using a confocal laser scanning microscope for biological use (inverted microscope (manufactured by Olympus Corporation, trade name: IX-83) equipped with FV 1200 manufactured by Olympus Corporation)). At that time, the whole sweat glands were visualized by detecting fluorescence derived from the nuclear staining reagent bound to the nucleus and fluorescence derived from the cytoskeleton-staining reagent bound to the cytoskeleton. […]
wherein n is the same as mentioned above. […] The actual moving distance (μm) of the cell was calculated by multiplying the movement value by the size per coordinate 1.

[3] = system: isolated whole sweat glands; experiment: Time-lapse imaging of whole sweat glands in Krebs-Ringer solution: outer and inner diameter index values of sweat gland tubule after stimulant; details: pilocarpine 10 mM added after 10 minutes
Description: Whole sweat glands were observed by time-lapse imaging in the same manner as in Example 1 except that Krebs-Ringer solution (composition: 125 mM sodium chloride, 5 mM potassium chloride, 1 mM calcium chloride, 1. 2 mM magnesium chloride, 25 mM sodium bicarbonate, 1.2 mM dihydrogen phosphate sodium, 5 mM glucose and 10 mg/100 mL of fatty acid-free bovine serum albumin, pH 7.48) was used in place of PBS. After 10 minutes passed from the initiation of the observation, pilocarpine which was a sweat gland contraction-inducing reagent (stimulant) was added to the whole sweat glands so as to have a concentration of 10 mM, and thereafter the observation of the whole sweat glands using the time-lapse imaging was continued. Next, changes of each outer diameter index values at the determined sites (A) to (C) shown in FIG. 17 with the passage of time were obtained by using the image analysis software (manufactured by BITPLANE, trade name: Imaris). The outer diameter index value was obtained by stacking data in the Z direction and performing calculation in which the image analysis software was used in the “Surface” mode under the following setting conditions: In FIG. 17, the determined site (A) is a portion enveloped by myoepithelial cells. The determined site (B) and the determined site (C) are portions which are not enveloped by myoepithelial cells, and which are flow pathways for sweat. Further, the scale bar in FIG. 17 means 50 μm. After cancelling the stacking of the data in the Z direction, changes of an inner diameter index value at the determined sites (A) to (C) shown in FIG. 18 were calculated with one kind of data in the Z direction. The internal diameter index value was obtained by preparing the surface model, then extracting the components included in the surface model with Mask tool included in an image analysis software and performing calculation with the image analysis software under the following setting conditions: […]

[4] = site not enveloped by myoepithelial cells, FIG. 19
[5] = site not enveloped by myoepithelial cells, FIG. 20

SMILES: CN1[C@@H]2CC[C@H]1C[C@@H](OC(=O)C(CO)c1ccccc1)C2 (stereo partly drawn) [atropine]
- perspiration-controlling action judged from sweat gland dynamics [1]: has an antiperspirant action
- changes of a moving distance of each cell included in the sweat glands with the passage of time, compared with sweat glands not contacted with atropine ([1]; Krebs-Ringer solution, FIG. 23 vs FIG. 24): smaller

SMILES: CC[C@@H]1C(=O)OC[C@@H]1Cc1cncn1C [pilocarpine]
- moving distances of the cell A, the cell B, the cell C, and the cell D [2]: become larger
- outer diameter index value at the determined site (A) ([3]; site enveloped by myoepithelial cells, FIG. 19): decreases after stimulating with the stimulant and then increases
- inner diameter index value at the determined site (A) ([3]; site enveloped by myoepithelial cells, FIG. 20): greatly decreases after stimulating with the stimulant and then increases
- outer diameter index value at the determined site (B) [3, 4]: increases after stimulating with the stimulant
- outer diameter index value at the determined site (C) [3, 4]: hardly changes after stimulating with the stimulant
- diameter index value at the determined site (B), results of FIG. 20 [3, 5]: hardly changes immediately after stimulating with the stimulant, but the outer diameter index value increases when passing a certain time
- diameter index value at the determined site (C), results of FIG. 20 [3, 5]: hardly changes immediately after stimulating with the stimulant, but the outer diameter index value increases when passing a certain time
